US20250268863A1, “DOSING REGIMENS FOR TREATMENT OF PATIENTS WITH LOCALLY ADVANCED SQUAMOUS CELL CARCINOMA” (priority 2019, published 2025)
“Also recorded” adds a separate entry of the source.

Legend:
[1] = tested on: locally advanced squamous cell cancer of the head and neck (LA-SCCHN); test: Dose escalation of Debio 1143 with concurrent chemoradiotherapy (MTD determination); assay type: in vivo
Procedure: Additionally, for each Debio 1143 dose level (DL) and overall, according to variant 1 of this example: • (a) the safety profile of Debio 1143 in combination with concurrent CRT was assessed; • (b) the antitumour activity of the recommended dose (RD) of Debio 1143 in combination with concurrent CRT in the study population was evaluated. • In a variant 2 of this example, the following items (c) to (f) were explored in addition to items (a) and (b) of variant 1: • (c) the pharmacokinetics (PK) of Debio 1143 and cisplatin when administered in combination with radiation therapy, and explore the potential for drug-drug interactions of Debio 1143 in combination with cisplatin was explored; • (d) the pharmacodynamic (PDy) biomarkers of Debio 1143 activity in combination with concurrent CRT were explored; • (e) the PK/PDy, PK/efficacy, PK/safety, PDy/efficacy and PDy/safety relationships and pharmacogenetic (PGx) factors that may affect Debio 1143 PK were explored; and • (f) the pharmacogenomic and tumour PGx factors were explored.
During the screening phase, subjects were evaluated and staged using the American Joint Committee on Cancer (“AJCC”) […] staging system.
Escalating doses of Debio 1143 were added to CRT. […] The starting dose of Debio 1143 in this combination study was 100 mg/day over 14 days every 21 days. […]

[2] = tested on: locally advanced squamous cell cancer of the head and neck (LA-SCCHN); test: Double-blind randomised placebo-controlled Phase II study of Debio 1143 + CRT: efficacy; assay type: in vivo, human; details: for Locoregional control rate at 18 months after CRT: 200 mg/day days 1-14 q3w + cisplatin CRT, N = 48 (ITT); for complete response / partial response: of 48 patients
Procedure: 96 patients were randomized 95 were treated.
The primary endpoint to the study was locoregional control rate (LRC) at 18 months after CRT. Key secondary endpoints included PFS, duration of LRC, overall survival, […] and CR at 3 and 6 months after CRT completion.
The main inclusion criteria were as follows: • Previously untreated, inoperable (unresectable) Stage III, Stage IVA, or Stage IVB as per AJCC TNM staging version 7.0 (2010) • LA-SCCHN of the oral cavity, hypopharynx, larynx, or oropharynx (HPV/p16 both negative or positive) • Heavy smoking history (>10 pack-years) • Negative HIV/HBV/HCV • Performance Status by Eastern Cooperative Oncology Group (ECOG)=0 or 1.
The main exclusion criteria were as follows: • Non-compensated liver cirrhosis (Child-Pugh class C) • >75 years • Non-cisplatin eligible.
A multicentre, phase 2, double-blind, randomised, placebo-controlled study was conducted to evaluate the safety and efficacy of oral Debio 1143 at 200 mg/day on Days 1-14 of 21-Day cycles combined with concomitant cisplatin-based chemoradiotherapy in patients with LA-SCCHN. Male and female patients were eligible if they were aged 18 to 75 years with histologically confirmed LA-SCCHN and fulfilled the following criteria: previously untreated, stage III, IVa or IVb (according to the American Joint Committee on Cancer 2010 staging system [AJCC TNM v7.0 2010]) of one or more of the following sites: oral cavity, oropharynx, hypopharynx and larynx and with T 2-4, N0-3, M0 measurable disease according to Response Evaluation Criteria in Solid Tumours (RECIST), version 1⋅1. Patients were to have a smoking history of more than 10 pack-years, and no medical history of hepatitis B or hepatitis C. For patients with oropharyngeal cancer, tumour HPV-status was determined by the presence of p16 using immunohistochemistry. Other inclusion criteria included: Eastern Cooperative Oncology Group (ECOG) performance status of 0 or 1, no clinically significant cardiac disease and no clinically significant hearing impairment that would have contraindicated the use of chemotherapy with HD-cisplatin.
Exclusion criteria included nasopharyngeal, paranasal sinuses, nasal cavity tumours or thyroid cancers, squamous cell cancer involving cervical neck nodes but from unknown primary site, unknown lymph node status, metastatic disease, any prior or current treatment for invasive head and neck cancer of any kind (including, but not limited to, prior tyrosine kinase inhibitors, prior neoadjuvant therapy, prior surgical resection, or use of any investigational agent), weight loss of >10% during the previous month, non-compensated liver cirrhosis, gastro-intestinal disorders that could affect drug absorption, concurrent treatment with any other systemic anticancer therapy or concomitant treatment with any drug on the prohibited medication list, history of uncontrolled or symptomatic angina, arrhythmias, or congestive heart failure, history of another malignancy within the last 5 years with the exception of completely resected basal or squamous cell skin cancer or successfully treated in-situ carcinoma, history of non-invasive lesion or in-situ carcinoma, including in the head and neck region that was successfully treated with surgery, peripheral neuropathy (grade 2 or above), clinical hearing loss, history of allergic reactions to appropriate antiemetics, human immunodeficiency virus infection. The protocol was approved by the institutional review boards or ethics committees of all participating centres. The study was carried out in accordance with the protocol, the principles expressed in the Declaration of Helsinki, and applicable regulatory requirements. All patients provided written informed consent in advance of study-specific procedures. […]

[3] = tested on: locally advanced squamous cell cancer of the head and neck (LA-SCCHN); test: Double-blind randomised placebo-controlled Phase II study of Debio 1143 + CRT: safety
Procedure: A double-blind randomized placebo-controlled Phase II study was conducted. […] All subjects received 100 mg/m^2 cisplatin on day 2 of each three-week cycle (up to three cycles) concomitantly with radiotherapy (RT). The subjects also received standard fractionation RT with 2 Gy/daily on five days/week for seven weeks up to 70 Gy delivered to the gross-tumor volume (GTV) and 50 Gy to eligible lymph nodes loco-regionally.
Conventional fractionated intensity modulated radiotherapy (IMRT) was delivered to the gross tumour volume (GTV, [primary tumour and involved nodes]), to a total dose of 70 Gy in 2 Gy daily fractions, for 5 days per week over 7 weeks. Primary and neck nodal areas with no tumour involvement (elective/prophylactic irradiation areas) received a total dose of 50 Gy. In accordance with the European Society of Medical Oncology guidelines, patients received prophylactic treatment with granisetron or palonosetron, dexamethasone and aprepitant, prior to and after cisplatin to prevent renal damage and emesis.
Medical history and demographics were collected at screening. Physical examination was conducted at screening, on day 1 of each cycle, at the end of study visit, at the safety follow-up visit and at each subsequent efficacy follow-up visit. Adverse events and co-medication were monitored throughout the study from signature of informed consent (28 days prior to the first dose) until 30 days after the last dose of study drug. Adverse events were graded according to Common Terminology Criteria for Adverse Events (NCI CTCAE) version 4⋅03. All information pertaining to unusual manifestations or adverse events was collected by the investigator at each visit. […] Late toxicities were defined in the protocol and monitored throughout the efficacy follow-up period until the end of study visit.

[4] = as of 21 Jul. 2020, median follow-up 33 months
[5] = first tumour evaluation, approximately 11 weeks after chemoradiotherapy
[6] = six months post chemoradiotherapy
[7] = two-year follow-up, data cut off 15 Jul. 2019

For `CN[C@@H](C)C(=O)N[C@H]1CN(C(=O)CC(C)C)CC[C@H]2CC[C@@H](C(=O)NC(c3ccccc3)c3ccccc3)N2C1=O` [Debio 1143, (5S,8S,10aR)—N-benzhydryl-5-[[(2S)-2-(methylamino)propanoyl]amino]-3-(3-methylbutanoyl)-6-oxo-1,2,4,5,8,9,10,10a-octahydropyrrolo[1,2-a][1,5]diazocine-8-carboxamide], the “efficacy versus CRT+placebo” value ([1]; high risk LA-SCCHN subjects) was “significantly improves efficacy”, the “maximum tolerated dose (MTD)” value ([1]; oral daily for 14 days every three weeks, with cisplatin 100 mg/m^2 and RT 70 Gy) was 200 mg and the “Locoregional control rate at 18 months after CRT” value [2] was 54%. For the same molecule, the “Locoregional control rate at 18 months after CRT” value ([2]; listed as Debio 1143 + CRT) was 54.2%, the “Odds Ratio for locoregional control at 18 months (Debio 1143 vs Placebo)” value ([2]; N = 48 per arm) was 2.69 and the “3 years OS rate” value ([2]; as of 21 Jul. 2020) was 66%. For the same molecule, the “Kaplan-Meier estimate of locoregional control at 36 months after the end of chemoradiotherapy” value ([2]; as of 21 Jul. 2020) was 78%, the “hazard ratio, duration of locoregional control vs placebo” value ([2]; as of 21 Jul. 2020) was 0.47 and the “median duration of locoregional control” value ([2]; as of 21 Jul. 2020) was “not reached”. For the same molecule, the “probability of PFS at 36 months” value ([2]; as of 21 Jul. 2020) was 72%, the “reduction of the risk of disease progression or death vs placebo” value ([2]; as of 21 Jul. 2020) was 66% and the “hazard ratio, PFS vs placebo” value ([2]; as of 21 Jul. 2020, 36 months of follow up) was 0.34. For the same molecule, the “hazard ratio, overall survival vs placebo” value [2, 4] was 0.49, the “median OS” value [2, 4] was “not reached” and the “reduction of the risk of mortality vs placebo” value [2, 4] was 51%. For the same molecule, the median overall survival ([2]; by 24 months) was “not yet reached”, the “Kaplan-Meier estimate of locoregional control at 18 months after the end of chemoradiotherapy” value ([2]; data cut off 15 Jul. 2019) was 78% and the “hazard ratio, duration of locoregional control vs placebo” value ([2]; data cut off 15 Jul. 2019) was 0.53. The “median duration of locoregional control” value ([2]; data cut off 15 Jul. 2019) was “not reached”, the median progression-free survival ([2]; data cut off 15 Jul. 2019) was “not reached” and the “proportion of patients progression-free at 24 months” value ([2]; data cut off 15 Jul. 2019) was 72%. It also gave a complete response [2, 5] of 35%, a partial response [2, 5] of 27% and a complete response [2, 6] of 52%. For the same molecule, the partial response [2, 6] was 15%, the “hazard ratio, overall survival vs placebo” value [2, 7] was 0.65 and the “hazard ratio, progression-free survival vs placebo” value [2, 7] was 0.37. For the same molecule, the patients who died ([3]; data cut off 15 Jul. 2019) was 14 patients, the “grade 3 bilirubin increases” value ([3]; in vivo) was “no grade 3 bilirubin increases” and the “grade 4 transaminase increases” value ([3]; in vivo) was “no grade 4 transaminase increases”. For the same molecule, the “patients with alanine aminotransferase increase leading to dose reduction” value ([3]; most common event leading to dose reduction) was 10%, the “patients who discontinued Debio 1143” value ([3]; of 48 patients) was 15% and the “patients with adverse events of at least grade 3” value ([3]; of 48 patients) was 85%. For the same molecule, the “patients with grade 1-2 tinnitus” value ([3]; of 48 patients) was 31%, the “patients with grade 4 events” value ([3]; of 48 patients) was 19% and the “patients with grade 5 events” value ([3]; of 48 patients) was “none”. For the same molecule, the “patients with serious treatment-emergent adverse events” value ([3]; of 48 patients) was 63%, the “patients with treatment-emergent adverse events leading to dose reductions of Debio 1143” value ([3]; of 48 patients) was 19% and the late toxicities ([3]; onset >60 days after CRT end, vs placebo) was “very similar and not increased; also recorded: late toxicity was balanced”. The “frequency or severity of cisplatin-associated adverse events” value ([3]; renal insufficiency, febrile neutropenia, thrombocytopenia, peripheral sensory neuropathy, severe vomiting, exception grade 1-2 tinnitus) was “did not increase the frequency or severity”, the “overall safety and tolerability of Debio 1143 added to chemoradiotherapy” value ([3]; vs placebo + CRT) was “well tolerated; also recorded: remained unchanged” and the “grade 3 increases in aspartate aminotransferase and alanine aminotransferase” value ([3]; vs placebo group) was “higher”. The “incidence of grade 3 anaemia” value ([3]; vs placebo group) was “higher incidence” and the “incidence of grade 4 neutropenia” value ([3]; vs placebo group) was “higher incidence”.
